Assay results published in PMC10011554, “BET inhibitor trotabresib in heavily pretreated patients with solid tumors and diffuse large B-cell lymphomas” (Nature Communications, 2023).

Assay: Adverse events, DLTs, MTD and RP2D in phase I study CC-90010-ST-001 (NCI CTCAE v4.03)
Assay type: in vivo
Description: The primary endpoints of the study were the safety and tolerability of trotabresib, as well as the MTD and/or RP2D of trotabresib. Safety was assessed using the National Cancer Institute Common Terminology Criteria for Adverse Events v4.03[53].
The decision to evaluate additional subjects within a dose cohort, a higher dose cohort, intermediate dose cohorts, smaller dose increments, alternate dosing schedules, or declare an MTD will also be determined by the SRC, based on their review of clinical and laboratory safety […]
7.2.4. Definition of a Subject Evaluable for DLT
After the first dose is administered in any cohort during dose escalation, subjects in each cohort […]
more than one subject per day will be enrolled in a given dose escalation cohort.
A subject evaluable for DLT is defined as one that: […]
without experiencing a DLT,
Subjects non-evaluable for DLT will be replaced. Additional subjects within any dose cohort may be enrolled at the discretion of the SRC. Intra-subject dose escalation will not be allowed during the DLT assessment period.
7.2.5. Definition of Maximum Tolerated Dose (MTD) […]
of MTD is described in Section 7.2.2.
A variable dose cohort (eg, less frequent dosing) may be evaluated to accurately determine the MTD at the discretion of the SRC.
7.2.6. Definition of Dose-Limiting Toxicity (DLT) […]
used as a guide for the grading of severity of adverse events. A DLT is defined as any of the following toxicities occurring within the DLT assessment unless the event can clearly be […]
Do se-limiting toxicities are described below:
• Hyperglycemia meeting any of the following criteria:
− Grade 3 or greater fasting hyperglycemia (> 250 mg/dL) lasting > 4 days despite optimal medical treatment
(1 picture or pasted object on this page, not shown here)
− Hyperglycemia associated with diabetic ketoacidosis or nonketotic hyperosmolar coma regardless of glucose level
− Hyperglycemia that necessitates dose reduction despite dose interruption and resolution to ≤ grade 1 hyperglycemia within two weeks as described in […]
• Any Grade 4 non-hematologic toxicity of any duration
• Any non-hematologic toxicity Grade ≥ 3 EXCEPT for:
− Grade 3 diarrhea, nausea, or vomiting of ≤ 3 days duration (with optimal medical […]
− Grade 3 rash of the acneiform, pustular or maculopapular type which resolves to […]
level with resumption of study drug at the same dose (with optimal medical […]
− Grade 3 fatigue which resolves to Grade ≤ 2 within 7 days of study drug […]
the same dose (with optimal medical management).
• Hematological toxicities as follows:
− Grade 4 neutropenia lasting > 7 days
− Grade 4 thrombocytopenia lasting > 7 days, Grade ≥ 3 thrombocytopenia with clinically significant bleeding
• Any AE, Grade ≥ 2 not specified or exempt above, unless clearly determined to be unrelated to the drug, necessitating dose-level reduction during Cycle 1.
Isolated laboratory changes without associated clinical signs or symptoms (eg, hypomagnesemia, hypermagnesemia, hypoalbuminemia, hypophosphatemia, lymphocyte count increased or decreased) may not be included in this definition. These findings will be discussed and reviewed […]
7.2.7. Criteria for Dose Escalation in the Next Cohort of Subjects
During Part A, the dose escalation criteria are described in Section 7.2.2.
7.2.8. Definition of Stopping Criteria
During Part A, the dose escalation stopping rules are in Section 7.2.2.
7.2.9. Permitted Study Drug Adjustments
Dose reductions are permitted in any cycle, including Cycle 1.
• Dose reductions that occur in Cycle 1 during dose escalation will constitute DLT as […]

[1] = part A (N = 69), 02 Dec 2019 cutoff
[2] = part A (n=69), as stated in protocol section 7.2.10.1
[3] = part A, 30 mg 3-days-on/11-days off, 02 Dec 2019 cutoff
[4] = part A, 45 mg 4-days-on/24-days-off, 02 Dec 2019 cutoff

Cn1cc(-c2cc(S(C)(=O)=O)ccc2OCC2CC2)c2ccccc2c1=O [trotabresib]
MTD (Schedule A, 3-days-on/11-days-off (180 mg per 28-day cycle)): 30 mg/dose
MTD (Schedule B, 4-days-on/24-days-off (180 mg per 28-day cycle)): 45 mg/dose
MTD (Schedule C, 2-days-on/5-days-off (120 mg per 28-day cycle)): 15 mg/dose
dose intensity below which well tolerated (human, in vivo): below 200 mg per 28-day cycle
further grade 3 and 4 TRAEs reported in one patient each (overall part A population): Grade 3 essential hypertension, hypokalemia, lipase increased, liver function test abnormal, presyncope, skin hemorrhage, and grade 4 blood creatinine phosphokinase increased, diabetes mellitus, and inappropriate antidiuretic hormone secretion
TRAE: ALT increased (part A 45 mg/day, any grade): 0%
TRAE: Anemia (part A 45 mg/day, any grade): 28.57%
TRAE: Any TRAE (part A 45 mg/day, any grade): 85.71%
TRAE: Asthenia (part A 45 mg/day, any grade): 14.29%
TRAE: Decreased appetite (part A 45 mg/day, any grade): 0%
TRAE: Dehydration (part A 45 mg/day, any grade): 0%
TRAE: Dermatitis acneiform (part A 45 mg/day, any grade): 0%
TRAE: Diarrhoea (part A 45 mg/day, any grade): 42.86%
TRAE: Dysgeusia (part A 45 mg/day, any grade): 14.29%
TRAE: Fatigue (part A 45 mg/day, any grade): 0%
TRAE: Hyperglycemia (part A 45 mg/day, any grade): 0%
TRAE: Hypertension (part A 45 mg/day, any grade): 0%
TRAE: Hyponatremia (part A 45 mg/day, any grade): 0%
TRAE: Hypophosphatemia (part A 45 mg/day, any grade): 0%
TRAE: Nausea (part A 45 mg/day, any grade): 28.57%
TRAE: Neutropenia (part A 45 mg/day, any grade): 0%
TRAE: Platelet count decreased (part A 45 mg/day, any grade): 0%
TRAE: Stomatitis (part A 45 mg/day, any grade): 42.86%
TRAE: Thrombocytopenia (part A 45 mg/day, any grade): 71.43%
TRAE: Vomiting (part A 45 mg/day, any grade): 14.29%
TRAE: ALT increased (part A 45 mg/day, grade 3): 0%
TRAE: Anemia (part A 45 mg/day, grade 3): 14.29%
TRAE: Any TRAE (part A 45 mg/day, grade 3): 14.29%
TRAE: Asthenia (part A 45 mg/day, grade 3): 0%
TRAE: Decreased appetite (part A 45 mg/day, grade 3): 0%
TRAE: Dehydration (part A 45 mg/day, grade 3): 0%
TRAE: Dermatitis acneiform (part A 45 mg/day, grade 3): 0%
TRAE: Diarrhoea (part A 45 mg/day, grade 3): 0%
TRAE: Dysgeusia (part A 45 mg/day, grade 3): 0%
TRAE: Fatigue (part A 45 mg/day, grade 3): 0%
TRAE: Hyperglycemia (part A 45 mg/day, grade 3): 0%
TRAE: Hypertension (part A 45 mg/day, grade 3): 0%
TRAE: Hyponatremia (part A 45 mg/day, grade 3): 0%
TRAE: Hypophosphatemia (part A 45 mg/day, grade 3): 0%
TRAE: Nausea (part A 45 mg/day, grade 3): 0%
TRAE: Neutropenia (part A 45 mg/day, grade 3): 0%
TRAE: Platelet count decreased (part A 45 mg/day, grade 3): 0%
TRAE: Stomatitis (part A 45 mg/day, grade 3): 0%
TRAE: Thrombocytopenia (part A 45 mg/day, grade 3): 0%
TRAE: Vomiting (part A 45 mg/day, grade 3): 0%
TRAE: ALT increased (part A 45 mg/day, grade 4): 0%
TRAE: Anemia (part A 45 mg/day, grade 4): 0%
TRAE: Any TRAE (part A 45 mg/day, grade 4): 14.29%
TRAE: Asthenia (part A 45 mg/day, grade 4): 0%
TRAE: Decreased appetite (part A 45 mg/day, grade 4): 0%
TRAE: Dehydration (part A 45 mg/day, grade 4): 0%
TRAE: Dermatitis acneiform (part A 45 mg/day, grade 4): 0%
TRAE: Diarrhoea (part A 45 mg/day, grade 4): 0%
TRAE: Dysgeusia (part A 45 mg/day, grade 4): 0%
TRAE: Fatigue (part A 45 mg/day, grade 4): 0%
TRAE: Hyperglycemia (part A 45 mg/day, grade 4): 0%
TRAE: Hypertension (part A 45 mg/day, grade 4): 0%
TRAE: Hyponatremia (part A 45 mg/day, grade 4): 0%
TRAE: Hypophosphatemia (part A 45 mg/day, grade 4): 0%
TRAE: Nausea (part A 45 mg/day, grade 4): 0%
TRAE: Neutropenia (part A 45 mg/day, grade 4): 0%
TRAE: Platelet count decreased (part A 45 mg/day, grade 4): 0%
TRAE: Stomatitis (part A 45 mg/day, grade 4): 0%
TRAE: Thrombocytopenia (part A 45 mg/day, grade 4): 14.29%
TRAE: Vomiting (part A 45 mg/day, grade 4): 0%
subjects with at least one DLT (part A (N = 69)): 6 subjects
Grade 3 or 4 TEAE anemia [1]: 4.3%
Grade 3 or 4 TEAE arthralgia [1]: 2.9%
Grade 3 or 4 TEAE asthenia [1]: 5.8%
Grade 3 or 4 TEAE back pain [1]: 2.9%
Grade 3 or 4 TEAE cognitive disorder [1]: 2.9%
Grade 3 or 4 TEAE decreased performance status [1]: 2.9%
Grade 3 or 4 TEAE decreased platelet count [1]: 2.9%
Grade 3 or 4 TEAE dyspnea [1]: 2.9%
Grade 3 or 4 TEAE fatigue [1]: 2.9%
Grade 3 or 4 TEAE hyperglycemia [1]: 5.8%
Grade 3 or 4 TEAE hypokalemia [1]: 2.9%
Grade 3 or 4 TEAE hyponatremia [1]: 2.9%
Grade 3 or 4 TEAE increased ALT [1]: 4.3%
Grade 3 or 4 TEAE thrombocytopenia [1]: 13.0%
TEAE abdominal pain [1]: 14.5%
TEAE anemia [1]: 15.9%
TEAE asthenia [1]: 39.1%
TEAE constipation [1]: 13.0%
TEAE decreased appetite [1]: 24.6%
TEAE dermatitis acneiform [1]: 13.0%
TEAE diarrhea [1]: 42.0%
TEAE dysgeusia [1]: 29.0%
TEAE fatigue [1]: 24.6%
TEAE headache [1]: 10.1%
TEAE hyperglycemia [1]: 21.7%
TEAE increased ALT [1]: 13.0%
TEAE maculopapular rash [1]: 10.1%
TEAE nausea [1]: 40.6%
TEAE stomatitis [1]: 24.6%
TEAE thrombocytopenia [1]: 50.7%
TEAE vomiting [1]: 24.6%
serious TEAE anemia [1]: 2.9%
serious TEAE arthralgia [1]: 2.9%
serious TEAE cognitive disorder [1]: 4.3%
serious TEAE decreased platelet count [1]: 1.4%
serious TEAE diarrhea [1]: 2.9%
serious TEAE fatigue [1]: 2.9%
serious TEAE general physical health deterioration [1]: 2.9%
serious TEAE headache [1]: 4.3%
serious TEAE noncardiac chest pain [1]: 2.9%
serious TEAE thrombocytopenia [1]: 2.9%
subjects with a TEAE leading to death (all not related) [1]: 10.1%
subjects with at least one Grade 3 or 4 TEAE [1]: 58.0%
subjects with at least one serious TEAE [1]: 46.4%
subjects with at least one treatment-related Grade 3 or 4 TEAE [1]: 33.3%
subjects with at least one treatment-related TEAE [1]: 87.0%
subjects with at least one treatment-related serious TEAE [1]: 11.6%
treatment-related Grade 3 or 4 TEAE anemia [1]: 4.3%
treatment-related Grade 3 or 4 TEAE decreased platelet count [1]: 2.9%
treatment-related Grade 3 or 4 TEAE fatigue [1]: 2.9%
treatment-related Grade 3 or 4 TEAE hyponatremia [1]: 2.9%
treatment-related Grade 3 or 4 TEAE increased ALT [1]: 2.9%
treatment-related Grade 3 or 4 TEAE thrombocytopenia [1]: 13.0%
treatment-related TEAE anemia [1]: 11.6%
treatment-related TEAE asthenia [1]: 31.9%
treatment-related TEAE decreased appetite [1]: 17.4%
treatment-related TEAE dermatitis acneiform [1]: 13.0%
treatment-related TEAE diarrhea [1]: 39.1%
treatment-related TEAE dysgeusia [1]: 26.1%
treatment-related TEAE fatigue [1]: 21.7%
treatment-related TEAE hyperglycemia [1]: 11.6%
treatment-related TEAE nausea [1]: 39.1%
treatment-related TEAE stomatitis [1]: 23.2%
treatment-related TEAE thrombocytopenia [1]: 46.4%
treatment-related TEAE vomiting [1]: 17.4%
treatment-related serious TEAE anemia [1]: 2.9%
treatment-related serious TEAE decreased platelet count [1]: 1.4%
treatment-related serious TEAE diarrhea [1]: 2.9%
treatment-related serious TEAE fatigue [1]: 2.9%
treatment-related serious TEAE thrombocytopenia [1]: 2.9%
Grade 3 or 4 TEAE decreased platelet count [2]: 4.3%
Grade 3 or 4 TEAE thrombocytopenia [2]: 10.1%
TEAE decreased platelet count [2]: 18.8%
subjects with at least one Grade 3 or 4 TEAE [2]: 49.3%
subjects with at least one TEAE Grade 3 or 4 related to study drug [3]: 33.3%
subjects with at least one TEAE related to study drug [3]: 66.7%
subjects with at least one TEAE Grade 3 or 4 related to study drug [4]: 28.6%
subjects with at least one TEAE related to study drug [4]: 85.7%
TRAE: ALT increased (part A, any grade): 7.25%
TRAE: Anemia (part A, any grade): 11.59%
TRAE: Any TRAE (part A, any grade): 86.96%
TRAE: Asthenia (part A, any grade): 31.88%
TRAE: Decreased appetite (part A, any grade): 17.39%
TRAE: Dehydration (part A, any grade): 0%
TRAE: Dermatitis acneiform (part A, any grade): 13.04%
TRAE: Diarrhoea (part A, any grade): 39.13%
TRAE: Dysgeusia (part A, any grade): 26.09%
TRAE: Fatigue (part A, any grade): 21.74%
TRAE: Hyperglycemia (part A, any grade): 11.59%
TRAE: Hypertension (part A, any grade): 1.45%
TRAE: Hyponatremia (part A, any grade): 4.35%
TRAE: Hypophosphatemia (part A, any grade): 2.9%
TRAE: Nausea (part A, any grade): 39.13%
TRAE: Neutropenia (part A, any grade): 7.25%
TRAE: Platelet count decreased (part A, any grade): 4.35%
TRAE: Stomatitis (part A, any grade): 23.19%
TRAE: Thrombocytopenia (part A, any grade): 46.38%
TRAE: Vomiting (part A, any grade): 17.39%
TRAE: ALT increased (part A, grade 3): 1.45%
TRAE: Anemia (part A, grade 3): 4.35%
TRAE: Any TRAE (part A, grade 3): 26.09%
TRAE: Asthenia (part A, grade 3): 1.45%
TRAE: Decreased appetite (part A, grade 3): 0%
TRAE: Dehydration (part A, grade 3): 0%
TRAE: Dermatitis acneiform (part A, grade 3): 0%
TRAE: Diarrhoea (part A, grade 3): 1.45%
TRAE: Dysgeusia (part A, grade 3): 0%
TRAE: Fatigue (part A, grade 3): 2.9%
